Measured values reported in patent publication US12122761B2, “2-azaspiro[3.4]octane derivatives as M4 agonists” (NOVARTIS AG, priority 2019, dated 2024).

Columns and labels:
[1] = molecular target: T1, human cloned CHRM2 receptor (M2_CHO cells) (Homo sapiens, UniProt P08172); experiment: CHRM2 Ca++ Flux Assay (agonist mode, FDSS 7000EX); format: cell-based; details: for M2 FDSS PA / Emax: Percent Activity measured to EC100 of Carbachol; for Emax: read-out: M2 FDSS PA; for EC50: agonist mode, geometric mean if tested more than once, read-out: M2 FDSS EC50
T1 construct: expressed in transfected cells; host or cells: CHO-K1
T1 sequence (P08172 1-466): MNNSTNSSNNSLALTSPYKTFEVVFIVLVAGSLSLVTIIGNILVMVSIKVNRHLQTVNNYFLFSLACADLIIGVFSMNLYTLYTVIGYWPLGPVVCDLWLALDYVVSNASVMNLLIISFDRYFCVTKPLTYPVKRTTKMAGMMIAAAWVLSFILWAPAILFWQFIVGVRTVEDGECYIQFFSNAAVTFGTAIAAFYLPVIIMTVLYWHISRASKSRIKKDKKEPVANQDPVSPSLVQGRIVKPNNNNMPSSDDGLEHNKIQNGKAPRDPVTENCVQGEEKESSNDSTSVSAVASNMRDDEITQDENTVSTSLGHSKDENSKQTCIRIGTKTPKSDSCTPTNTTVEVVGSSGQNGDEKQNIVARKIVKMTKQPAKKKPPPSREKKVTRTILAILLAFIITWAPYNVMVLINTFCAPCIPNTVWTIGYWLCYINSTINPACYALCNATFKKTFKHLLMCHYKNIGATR
In short: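 Agonist-mode Ca++ flux in CHO-K1 cells stably expressing human CHRM2, dye-loaded, then held 60 min at room temperature in buffer with 20 μM ATP before compound addition; traces read over 3 minutes. Four-parameter fit of triplicate wells; percent activity relative to Carbachol EC100.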

[2] = molecular target: T2, human cloned CHRM5 receptor (M5_CHO) (Homo sapiens, UniProt P08912); experiment: CHRM5 Ca++ Flux Assay (agonist mode, FDSS 7000EX); format: cell-based; details: for M5 FDSS PA / Emax: Percent Activity measured to EC100 of Carbachol; for EC50: agonist mode, geometric mean if tested more than once, read-out: M5 FDSS EC50; for Emax: read-out: M5 FDSS PA
T2 construct: expressed in transfected cells; host or cells: CHO (M5_CHO)
T2 sequence (P08912 1-532): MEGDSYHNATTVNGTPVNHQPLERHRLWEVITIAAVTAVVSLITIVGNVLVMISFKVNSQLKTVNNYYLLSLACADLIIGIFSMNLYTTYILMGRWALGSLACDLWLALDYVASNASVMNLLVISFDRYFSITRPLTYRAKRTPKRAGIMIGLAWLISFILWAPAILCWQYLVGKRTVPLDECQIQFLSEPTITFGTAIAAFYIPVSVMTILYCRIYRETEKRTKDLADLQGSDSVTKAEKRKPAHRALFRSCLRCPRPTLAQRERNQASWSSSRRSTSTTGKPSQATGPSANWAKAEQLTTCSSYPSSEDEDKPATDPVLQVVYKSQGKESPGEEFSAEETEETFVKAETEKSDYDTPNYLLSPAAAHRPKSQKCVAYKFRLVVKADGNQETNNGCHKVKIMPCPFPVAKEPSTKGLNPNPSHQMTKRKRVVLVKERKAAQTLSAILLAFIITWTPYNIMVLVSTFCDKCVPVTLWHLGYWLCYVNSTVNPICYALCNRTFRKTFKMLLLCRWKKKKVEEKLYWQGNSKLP
In short: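 Agonist responses are measured as calcium mobilization in CHO-K1 cells expressing human M3 or M5, tested over an 11-point dose range in triplicate. Percent activity is normalised to carbachol at EC100.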

SMILES: O=C(N1CC2(CC[C@@H](N3CCC(c4cc(F)ccc4OC4CC5(COC5)C4)CC3)C2)C1)C1(F)CC1 (single isomer, unassigned) [Example 11B, (R)-(6-(4-(2-((2-oxaspiro[3.3]heptan-6-yl)oxy)-5-fluorophenyl)piperidin-1-yl)-2-azaspiro[3.4]octan-2-yl)(1-fluorocyclopropyl)methanone or (S)-(6-(4-(2-((2-oxaspiro[3.3]heptan-6-yl)oxy)-5-fluorophenyl)piperidin-1-yl)-2-azaspiro[3.4]octan-2-yl)(1-fluorocyclopropyl)methanone]
- M2 FDSS PA [1]: 0%
- M5 FDSS PA [2]: 0%
- EC50 [2]: > 25 µM

SMILES: O=C(N1CC2(CC[C@@H](N3CCC(c4ccccc4OC4CC5(COC5)C4)CC3)C2)C1)C1(F)CC1 (single isomer, unassigned) [Example 11C, (R)-(6-(4-(2-((2-oxaspiro[3.3]heptan-6-yl)oxy)phenyl)piperidin-1-yl)-2-azaspiro[3.4]octan-2-yl)(1-fluorocyclopropyl)methanone or (S)-(6-(4-(2-((2-oxaspiro[3.3]heptan-6-yl)oxy)phenyl)piperidin-1-yl)-2-azaspiro[3.4]octan-2-yl)(1-fluorocyclopropyl)methanone]
- M2 FDSS PA [1]: 0%
- M5 FDSS PA [2]: 0%
- EC50 [2]: > 25 µM

SMILES: O=C(N1CC2(CC[C@@H](N3CCC(c4ccccc4OC4CC5(COC5)C4)CC3)C2)C1)C1(F)CC1 (single isomer, unassigned) [Example 11D, (R)-(6-(4-(2-((2-oxaspiro[3.3]heptan-6-yl)oxy)phenyl)piperidin-1-yl)-2-azaspiro[3.4]octan-2-yl)(1-fluorocyclopropyl)methanone or (S)-(6-(4-(2-((2-oxaspiro[3.3]heptan-6-yl)oxy)phenyl)piperidin-1-yl)-2-azaspiro[3.4]octan-2-yl)(1-fluorocyclopropyl)methanone]
- M2 FDSS PA [1]: 0%
- M5 FDSS PA [2]: 0%
- EC50 [2]: > 25 µM

SMILES: Fc1ccc(OC2CC3(COC3)C2)c(C2CCN([C@@H]3CCC4(C3)CN(c3nnco3)C4)CC2)c1 [Example 1B, (R)-2-(6-(4-(2-((2-oxaspiro[3.3]heptan-6-yl)oxy)-5-fluorophenyl)piperidin-1-yl)-2-azaspiro[3.4]octan-2-yl)-1,3,4-oxadiazole]
- Emax [1]: 0%
- Emax [2]: 0%
- EC50 [2]: > 25 µM

SMILES: c1ccc(C2CCN([C@@H]3CCC4(C3)CN(c3nnco3)C4)CC2)c(OC[C@H]2COCCO2)c1 [Example 1C, 2-((R)-6-(4-(2-(((R)-1,4-dioxan-2-yl)methoxy)phenyl)piperidin-1-yl)-2-azaspiro[3.4]octan-2-yl)-1,3,4-oxadiazole]
- Emax [1]: 15%
- EC50 [1]: 0.017 µM
- Emax [2]: 0%
- EC50 [2]: > 25 µM

SMILES: Cc1coc(N2CC3(CC[C@@H](N4CCC(c5ccc(F)cc5OCC(C)(C)O)CC4)C3)C2)n1 [Example 3N, (R)-1-(5-fluoro-2-(1-(2-(4-methyloxazol-2-yl)-2-azaspiro[3.4]octan-6-yl)piperidin-4-yl)phenoxy)-2-methylpropan-2-ol]
- Emax [1]: 0%
- Emax [2]: 0%
- EC50 [2]: > 25 µM

SMILES: Cc1coc(N2CC3(CC[C@@H](N4CCC(c5ccccc5OCC(C)(C)O)CC4)C3)C2)n1 [Example 3O, (R)-2-methyl-1-(2-(1-(2-(4-methyloxazol-2-yl)-2-azaspiro[3.4]octan-6-yl)piperidin-4-yl)phenoxy)propan-2-ol]
- Emax [1]: 0%
- Emax [2]: 0%
- EC50 [2]: > 25 µM

SMILES: COc1ccccc1C1CCN([C@@H]2CCC3(C2)CN(c2ncon2)C3)CC1 [Example 4A, (R)-3-(6-(4-(2-methoxyphenyl)piperidin-1-yl)-2-azaspiro[3.4]octan-2-yl)-1,2,4-oxadiazole]
- Emax [1]: 21%
- EC50 [1]: 0.019 µM
- Emax [2]: 6%
- EC50 [2]: 0.7 µM

SMILES: COc1ccccc1C1CCN([C@@H]2CCC3(C2)CN(c2cncnc2)C3)CC1 [Example 5A, (R)-6-(4-(2-methoxyphenyl)piperidin-1-yl)-2-(pyrimidin-5-yl)-2-azaspiro[3.4]octane]
- Emax [1]: 0%
- Emax [2]: 0%
- EC50 [2]: > 25 µM

SMILES: CC(C)(O)COc1ccccc1C1CCN([C@@H]2CCC3(C2)CN(c2cncnc2)C3)CC1 [Example 5B, (R)-2-methyl-1-(2-(1-(2-(pyrimidin-5-yl)-2-azaspiro[3.4]octan-6-yl)piperidin-4-yl)phenoxy)propan-2-ol]
- Emax [1]: 0%
- Emax [2]: 0%
- EC50 [2]: > 25 µM

SMILES: Cc1ncncc1N1CC2(CC[C@@H](N3CCC(c4ccccc4OCC(C)(C)O)CC3)C2)C1 [Example 5C, (R)-2-methyl-1-(2-(1-(2-(4-methylpyrimidin-5-yl)-2-azaspiro[3.4]octan-6-yl)piperidin-4-yl)phenoxy)propan-2-ol]
- Emax [1]: 0%
- Emax [2]: 0%
- EC50 [2]: > 25 µM

SMILES: COc1ccccc1C1CCN([C@@H]2CCC3(C2)CN(c2ccc(C)nc2)C3)CC1 [Example 5D, (R)-6-(4-(2-methoxyphenyl)piperidin-1-yl)-2-(6-methylpyridin-3-yl)-2-azaspiro[3.4]octane]
- Emax [1]: 0%
- Emax [2]: 0%
- EC50 [2]: > 25 µM

SMILES: COc1ccccc1C1CCN([C@@H]2CCC3(C2)CN(c2cnc(C)nc2)C3)CC1 [Example 5E, (R)-6-(4-(2-methoxyphenyl)piperidin-1-yl)-2-(2-methylpyrimidin-5-yl)-2-azaspiro[3.4]octane]
- Emax [1]: 0%
- Emax [2]: 0%
- EC50 [2]: > 25 µM

SMILES: COc1ccccc1C1CCN([C@@H]2CCC3(C2)CN(c2cncc(F)c2)C3)CC1 [Example 5F, (R)-2-(5-fluoropyridin-3-yl)-6-(4-(2-methoxyphenyl)piperidin-1-yl)-2-azaspiro[3.4]octane]
- Emax [1]: 26%
- Emax [2]: 17%
- EC50 [2]: 14.3 µM

SMILES: COc1ccccc1C1CCN([C@@H]2CCC3(C2)CN(c2cncc(C)n2)C3)CC1 [Example 5G, (R)-6-(4-(2-methoxyphenyl)piperidin-1-yl)-2-(6-methylpyrazin-2-yl)-2-azaspiro[3.4]octane]
- Emax [1]: 0%
- Emax [2]: 0%
- EC50 [2]: > 25 µM

SMILES: COc1ccccc1C1CCN([C@@H]2CCC3(C2)CN(c2cnccn2)C3)CC1 [Example 5H, (R)-6-(4-(2-methoxyphenyl)piperidin-1-yl)-2-(pyrazin-2-yl)-2-azaspiro[3.4]octane]
- Emax [1]: 0%
- Emax [2]: 0%
- EC50 [2]: > 25 µM

SMILES: COc1ccccc1C1CCN([C@@H]2CCC3(C2)CN(c2nccnc2C(F)(F)F)C3)CC1 [Example 5I, (R)-6-(4-(2-methoxyphenyl)piperidin-1-yl)-2-(3-(trifluoromethyl)pyrazin-2-yl)-2-azaspiro[3.4]octane]
- Emax [1]: 49%
- EC50 [1]: 13.2 µM
- Emax [2]: 0%
- EC50 [2]: > 25 µM

SMILES: COc1ccccc1C1CCN([C@@H]2CCC3(C2)CN(c2nccnc2C)C3)CC1 [Example 5J, (R)-6-(4-(2-methoxyphenyl)piperidin-1-yl)-2-(3-methylpyrazin-2-yl)-2-azaspiro[3.4]octane]
- Emax [1]: 0%
- Emax [2]: 0%
- EC50 [2]: > 25 µM

SMILES: COc1ccccc1C1CCN([C@@H]2CCC3(C2)CN(c2cccnc2)C3)CC1 [Example 5K, (R)-6-(4-(2-methoxyphenyl)piperidin-1-yl)-2-(pyridin-3-yl)-2-azaspiro[3.4]octane]
- Emax [1]: 18%
- Emax [2]: 0%
- EC50 [2]: > 25 µM
